# Activity calls are given as the source filed them. The calls are words filed in the database; no cut-off is given here.
# Key:
# HaCaT [1] = assay: Anti-psoriasis effect in KGF-stimulated human HaCaT cells assessed as decrease in MMP-2 level at 2 to 5 uM incubated for 24 hrs by Western blot analysis; type: functional, cell-based; details: dose 2-5 µM
# Mus musculus [2] = assay: Anti-inflammatory activity in Balb/c mouse model of IMQ-induced skin inflammation assessed as reduction in skin swelling at 20 to 80 mg/kg, po administered daily for 7 days; type: functional, organism-based; details: dose 20-80 mg/kg, time 7.0 day
# Mus musculus [3] = assay: Anti-inflammatory activity in Balb/c mouse model of IMQ-induced skin inflammation assessed as decrease in KGF mRNA level in dorsal skin at 40 to 80 mg/kg, po administered daily for 7 days by RT-qPCR analysis; type: functional, organism-based; details: dose 40-80 mg/kg, time 7.0 day
# [4] = Toxicity in Balb/c mouse model of IMQ-induced skin inflammation assessed as body weight loss at 80 mg/kg, po administered daily for 7 days; type: organism-based; details: in vivo, 168 h, time 7 day
# Mus musculus [5] = assay: In vivo inhibition of ROCK2 in Balb/c mouse model of IMQ-induced skin inflammation assessed as decrease in pSTAT3+ cells in dorsal skin at 20 to 80 mg/kg, po administered daily for 7 days by high power field microscopy; type: functional, organism-based; details: dose 20-80 mg/kg, time 7.0 day
# Mus musculus [6] = assay: Anti-inflammatory activity in Balb/c mouse model of IMQ-induced skin inflammation assessed as decrease in CD3+ T cells in dorsal skin at 20 to 80 mg/kg, po administered daily for 7 days by high power field microscopy; type: functional, organism-based; details: T-cell, dose 20-80 mg/kg, time 7.0 day
# [7] = Selectivity ratio of IC50 for ROCK1 (unknown origin) to IC50 for ROCK2 (unknown origin)
# HaCaT [8] = assay: Anti-psoriasis effect in KGF-stimulated human HaCaT cells assessed as decrease in N-cadherin level at 2 to 5 uM incubated for 24 hrs by Western blot analysis; type: functional, cell-based; details: dose 2-5 µM
# [9] = Volume of distribution at steady state in Balb/c mouse at 10 mg/kg, iv measured for 0.08 to 24 hrs by LC-MS/MS analysis; type: ADME, organism-based; details: in vivo, time 0.08-24 hrs, read-out: Vdss
# [10] = molecular target: Rho-associated protein kinase 2 (Homo sapiens, UniProt O75116); assay: Inhibition of ROCK2 (unknown origin) by HTRF assay
# [11] = Tmax in Balb/c mouse at 40 mg/kg, po measured for 0.08 to 24 hrs by LC-MS/MS analysis; type: ADME, organism-based; details: in vivo, time 0.08-24 hrs
# [12] = Oral bioavailability in Balb/c mouse at 40 mg/kg measured for 0.08 to 24 hrs by LC-MS/MS analysis; type: ADME, organism-based; details: in vivo, time 0.08-24 hrs
# Mus musculus [13] = assay: Anti-inflammatory activity in Balb/c mouse model of IMQ-induced skin inflammation assessed as decrease in serum IL-17A level at 40 to 80 mg/kg, po administered daily for 7 days by IHC analysis; type: functional, organism-based; details: dose 40-80 mg/kg, time 7.0 day
# [14] = Half life in Balb/c mouse at 10 mg/kg, iv measured for 0.08 to 24 hrs by LC-MS/MS analysis; type: ADME, organism-based; details: in vivo, time 0.08-24 hrs
# Mus musculus [15] = assay: Anti-inflammatory activity in Balb/c mouse model of IMQ-induced skin inflammation assessed as reduction in epidermal thickness of dorsal skin at 40 to 80 mg/kg, po administered daily for 7 days by H and E staining based analysis; type: functional, organism-based; details: dose 40-80 mg/kg, time 7.0 day
# Mus musculus [16] = assay: Anti-inflammatory activity in Balb/c mouse model of IMQ-induced skin inflammation assessed as reduction in skin scales at 20 to 80 mg/kg, po administered daily for 7 days; type: functional, organism-based; details: dose 20-80 mg/kg, time 7.0 day
# Mus musculus [17] = assay: Anti-inflammatory activity in Balb/c mouse model of IMQ-induced skin inflammation assessed as decrease in serum IL-17F level at 40 mg/kg, po administered daily for 7 days by IHC analysis; type: functional, organism-based; details: time 7.0 day
# Mus musculus [18] = assay: Anti-inflammatory activity in Balb/c mouse model of IMQ-induced skin inflammation assessed as decrease in IL-22 mRNA level in dorsal skin at 20 to 40 mg/kg, po administered daily for 7 days by RT-qPCR analysis; type: functional, organism-based; details: dose 20-40 mg/kg, time 7.0 day
# Mus musculus [19] = assay: Anti-inflammatory activity in Balb/c mouse model of IMQ-induced skin inflammation assessed as decrease in IL-17A mRNA level in dorsal skin at 80 mg/kg, po administered daily for 7 days by RT-qPCR analysis; type: functional, organism-based; details: time 7.0 day
# [20] = molecular target: Rho-associated protein kinase 1 (Homo sapiens, UniProt Q13464); assay: Inhibition of ROCK1 (unknown origin) by HTRF assay
# [21] = Toxicity in Balb/c mouse model of IMQ-induced skin inflammation assessed as reduction in spleen index administered orally daily for 7 days; type: tissue-based; details: in vivo, po, 168 h, dose 40-80 mg/kg, time 7 day
# [22] = Clearance in Balb/c mouse at 10 mg/kg, iv measured for 0.08 to 24 hrs by LC-MS/MS analysis; type: ADME, organism-based; details: in vivo, time 0.08-24 hrs
# Mus musculus [23] = assay: Anti-inflammatory activity in Balb/c mouse model of IMQ-induced skin inflammation assessed as decrease in serum IL-17F level at 80 mg/kg, po administered daily for 7 days by IHC analysis; type: functional, organism-based; details: time 7.0 day
# [24] = Cmax in Balb/c mouse at 40 mg/kg, po measured for 0.08 to 24 hrs by LC-MS/MS analysis; type: ADME, organism-based; set-up: time lower 0.08 hrs, dose 40 mg/kg, time upper 24 hrs, route po; details: in vivo
# Mus musculus [25] = assay: Anti-inflammatory activity in Balb/c mouse model of IMQ-induced skin inflammation assessed as decrease in IL-17F mRNA level in dorsal skin at 80 mg/kg, po administered daily for 7 days by RT-qPCR analysis; type: functional, organism-based; details: time 7.0 day
# Mus musculus [26] = assay: Anti-inflammatory activity in Balb/c mouse model of IMQ-induced skin inflammation assessed as decrease in IL-22 mRNA level in dorsal skin at 80 mg/kg, po administered daily for 7 days by RT-qPCR analysis; type: functional, organism-based; details: time 7.0 day
# Mus musculus [27] = assay: Anti-inflammatory activity in Balb/c mouse model of IMQ-induced skin inflammation assessed as decrease in IL-23 mRNA level in dorsal skin at 80 mg/kg, po administered daily for 7 days by RT-qPCR analysis; type: functional, organism-based; details: time 7.0 day
# [28] = AUC (0 to infinity) in Balb/c mouse at 40 mg/kg, po measured for 0.08 to 24 hrs by LC-MS/MS analysis; type: ADME, organism-based; set-up: time 0.08-24 hrs, dose 40 mg/kg, route po; details: in vivo
# Mus musculus [29] = assay: Anti-inflammatory activity in Balb/c mouse model of IMQ-induced skin inflammation assessed as decrease in Ki67+ cells in dermis of dorsal skin at 80 mg/kg, po administered daily for 7 days by IHC analysis; type: functional, organism-based; details: time 7.0 day
# Mus musculus [30] = assay: Anti-inflammatory activity in Balb/c mouse model of IMQ-induced skin inflammation assessed as decrease in IL-17A+ T cells in dorsal skin administered orally daily for 7 days by high power field microscopy; type: functional, organism-based; details: T-cell, dose 20-80 mg/kg, route po, time 7.0 day
# Mus musculus [31] = assay: Anti-inflammatory activity in Balb/c mouse model of IMQ-induced skin inflammation assessed as reduction in skin erythema at 20 to 80 mg/kg, po administered daily for 7 days; type: functional, organism-based; details: dose 20-80 mg/kg, time 7.0 day
# [32] = Half life in Balb/c mouse at 40 mg/kg, po measured for 0.08 to 24 hrs by LC-MS/MS analysis; type: ADME, organism-based; details: in vivo, time 0.08-24 hrs
# HaCaT [33] = assay: Inhibition of KGF-induced hyperproliferation of human HaCaT cells by plate clone formation assay; type: functional, cell-based
# [34] = Lipophilicity, log D of the compound at pH 7.4; type: physicochemical; details: buffer
# Rho-associated protein kinase 2, sequence (O75116 whole entry): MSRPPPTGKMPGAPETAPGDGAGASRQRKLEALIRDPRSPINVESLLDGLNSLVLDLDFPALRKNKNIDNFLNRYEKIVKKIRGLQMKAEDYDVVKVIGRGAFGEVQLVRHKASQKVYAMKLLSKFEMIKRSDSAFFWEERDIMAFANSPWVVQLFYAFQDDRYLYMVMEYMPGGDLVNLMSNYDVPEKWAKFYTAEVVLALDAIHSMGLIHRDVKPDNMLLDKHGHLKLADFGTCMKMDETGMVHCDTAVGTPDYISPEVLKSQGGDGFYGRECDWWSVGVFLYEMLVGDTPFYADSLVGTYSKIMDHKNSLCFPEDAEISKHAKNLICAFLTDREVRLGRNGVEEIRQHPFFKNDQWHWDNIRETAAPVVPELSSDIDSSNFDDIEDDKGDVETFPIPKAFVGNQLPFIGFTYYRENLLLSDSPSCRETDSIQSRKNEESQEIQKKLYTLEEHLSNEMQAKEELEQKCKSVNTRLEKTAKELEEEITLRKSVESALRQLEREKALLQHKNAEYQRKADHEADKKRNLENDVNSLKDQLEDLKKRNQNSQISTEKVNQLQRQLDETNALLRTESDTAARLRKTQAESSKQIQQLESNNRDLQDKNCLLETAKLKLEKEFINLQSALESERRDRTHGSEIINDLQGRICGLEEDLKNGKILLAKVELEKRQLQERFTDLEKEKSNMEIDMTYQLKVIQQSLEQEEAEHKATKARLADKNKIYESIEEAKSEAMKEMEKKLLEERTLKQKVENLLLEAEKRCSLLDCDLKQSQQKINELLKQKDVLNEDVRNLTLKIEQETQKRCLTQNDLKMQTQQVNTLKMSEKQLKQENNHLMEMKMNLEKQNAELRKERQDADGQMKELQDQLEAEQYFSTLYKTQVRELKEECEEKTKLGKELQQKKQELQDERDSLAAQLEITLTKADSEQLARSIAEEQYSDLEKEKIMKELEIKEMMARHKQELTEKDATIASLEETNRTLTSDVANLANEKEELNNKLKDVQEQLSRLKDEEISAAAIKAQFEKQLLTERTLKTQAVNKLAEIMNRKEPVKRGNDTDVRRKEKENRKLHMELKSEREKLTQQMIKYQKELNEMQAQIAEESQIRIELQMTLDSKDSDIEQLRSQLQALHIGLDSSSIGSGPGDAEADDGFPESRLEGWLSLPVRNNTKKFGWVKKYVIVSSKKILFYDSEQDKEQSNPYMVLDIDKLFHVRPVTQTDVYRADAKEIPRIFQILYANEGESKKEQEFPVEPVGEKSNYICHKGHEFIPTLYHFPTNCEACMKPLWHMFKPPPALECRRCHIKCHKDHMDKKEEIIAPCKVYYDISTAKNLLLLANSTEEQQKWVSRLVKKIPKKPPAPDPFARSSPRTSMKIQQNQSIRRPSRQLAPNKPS
# Rho-associated protein kinase 1, sequence (Q13464 whole entry): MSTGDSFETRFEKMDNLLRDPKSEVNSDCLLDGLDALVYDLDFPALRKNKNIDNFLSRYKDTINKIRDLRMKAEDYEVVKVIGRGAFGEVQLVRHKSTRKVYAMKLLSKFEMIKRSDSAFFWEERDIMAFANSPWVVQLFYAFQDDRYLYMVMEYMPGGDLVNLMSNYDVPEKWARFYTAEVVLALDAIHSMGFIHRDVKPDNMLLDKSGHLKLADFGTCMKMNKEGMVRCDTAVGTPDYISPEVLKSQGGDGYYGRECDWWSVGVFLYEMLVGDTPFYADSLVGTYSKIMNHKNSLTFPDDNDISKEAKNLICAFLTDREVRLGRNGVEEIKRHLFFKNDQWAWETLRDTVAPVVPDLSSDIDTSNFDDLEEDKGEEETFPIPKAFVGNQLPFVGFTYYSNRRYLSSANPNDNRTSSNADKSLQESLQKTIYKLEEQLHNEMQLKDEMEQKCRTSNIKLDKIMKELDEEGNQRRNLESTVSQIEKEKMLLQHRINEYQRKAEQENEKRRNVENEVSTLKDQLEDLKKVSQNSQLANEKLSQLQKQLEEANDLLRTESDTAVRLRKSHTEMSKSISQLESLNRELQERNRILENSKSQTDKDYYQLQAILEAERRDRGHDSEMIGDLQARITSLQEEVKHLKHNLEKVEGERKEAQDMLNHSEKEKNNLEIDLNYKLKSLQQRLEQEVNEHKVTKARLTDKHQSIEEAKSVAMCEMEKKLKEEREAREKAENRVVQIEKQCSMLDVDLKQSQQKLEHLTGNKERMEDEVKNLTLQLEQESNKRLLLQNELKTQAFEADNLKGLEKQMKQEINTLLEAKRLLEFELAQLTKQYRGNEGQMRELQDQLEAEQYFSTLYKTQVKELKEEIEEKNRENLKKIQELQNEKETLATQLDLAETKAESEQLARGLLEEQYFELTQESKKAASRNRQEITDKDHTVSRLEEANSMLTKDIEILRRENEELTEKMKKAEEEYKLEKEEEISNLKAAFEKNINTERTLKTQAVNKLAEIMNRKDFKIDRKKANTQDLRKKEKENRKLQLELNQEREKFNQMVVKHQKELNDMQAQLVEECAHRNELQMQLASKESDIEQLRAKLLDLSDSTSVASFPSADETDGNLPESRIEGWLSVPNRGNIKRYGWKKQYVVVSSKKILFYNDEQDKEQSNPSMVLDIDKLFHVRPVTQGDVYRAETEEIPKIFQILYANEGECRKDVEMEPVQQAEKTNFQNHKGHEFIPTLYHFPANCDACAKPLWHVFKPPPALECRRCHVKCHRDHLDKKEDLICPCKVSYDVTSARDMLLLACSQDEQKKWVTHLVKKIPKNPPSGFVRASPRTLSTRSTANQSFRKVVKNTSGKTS
structure (smiles),measurement,setting,value
Cc1cc(=O)n(-c2cccc(CN[C@H]3CCC[C@H](Nc4ccc5[nH]ncc5c4)C3)c2)cc1F,Activity,HaCaT [1],Active
same,Activity,Mus musculus [2],Active
same,Activity,Mus musculus [3],Active
same,Activity,[4],Non-Toxic
same,Activity,Mus musculus [5],Active
same,Activity,Mus musculus [6],Active
same,Ratio IC50,[7],19
same,Activity,HaCaT [8],Active
same,Vd,[9],8.63 L/kg
same,IC50,[10],3.7 nM
same,Tmax,[11],0.25 h
same,bioavailability,[12],7.14%
same,Activity,Mus musculus [13],Active
same,half-life,[14],1.99 h
same,Activity,Mus musculus [15],Active
same,Activity,Mus musculus [16],Active
same,Activity,Mus musculus [17],Active
same,Activity,Mus musculus [18],Active
same,Activity,Mus musculus [19],Active
same,IC50,[20],71.2 nM
same,Activity,[21],Dose-Dependent Effect
same,clearance,[22],158 mL/min/kg
same,Activity,Mus musculus [23],inactive
same,Cmax,[24],226 ng/mL
same,Activity,Mus musculus [25],inactive
same,Activity,Mus musculus [26],Active
same,Activity,Mus musculus [27],Active
same,AUC(0-inf),[28],302 ng·h/mL
same,Activity,Mus musculus [29],Active
same,Activity,Mus musculus [30],Dose-Dependent Effect
same,Activity,Mus musculus [31],Active
same,half-life,[32],1.26 h
same,inhibition,HaCaT [33],Active
same,logD,[34],0.84
